The text below walks through data of ChEMBL document CHEMBL1201862, “PubChem BioAssay data set” (2004).

The term EC50 denotes the concentration at which the effect is half-maximal. As usually defined, the AC50 is the midpoint of the concentration-response curve, whichever way the signal moves. The IC50 is the midpoint of a concentration-inhibition curve.

Assay [1] deals with Signal transducer and activator of transcription 3 (Homo sapiens, UniProt P40763). Kind of assay: STAT3 activation with BCL3 mRNA and toxicity – cell-based, […], BCL3 qPCR, cytotoxicity, late-stage follow-up, panel member STAT3 Activation (AID 2049). Background: Real-time PCR tracks product formation cycle by cycle.
The nature of assay [2]: A cytotoxicity screen of small molecule inhibitors of the PhoP region in Salmonella typhi identified in the primary screen. [Related pubchem assays: 1850, 1864, 1985 ]. The assay is classed as functional.
The next assay concerns Vero. Kind of assay: cells. Conditions: Chlorocebus sabaeus. It counts as functional.
The nature of assay [3]: A Cell Based Secondary Assay To Explore Cytotoxicity of Compounds that Sensitize Mycobacterium Tuberculosis to Beta-Lactam Antibiotics. It counts as functional.
Assay [4] in a line: alpha-synuclein stem-loop luciferase translation blockers – H4 neuroglioma cells, luminescence, confirmation (AID 1988). The assay is classed as functional, cell-based.
In the next assay the test system is HT-1080. Description: HT1080 cell viability loss – fluorescence readout (AID 620). The assay is classed as functional, cell-based. Conditions: Homo sapiens.
Assay [5] deals with Luciferin 4-monooxygenase (Photinus pyralis, UniProt P08659). Description: Counter Screen for Luciferase-based Assay Positives. [Related pubchem assays: 620, 618, 411 ]. For orientation: The purpose of a counterscreen is to sort out artefacts and off-target activity.
Luciferin 4-monooxygenase, sequence (P08659 whole entry): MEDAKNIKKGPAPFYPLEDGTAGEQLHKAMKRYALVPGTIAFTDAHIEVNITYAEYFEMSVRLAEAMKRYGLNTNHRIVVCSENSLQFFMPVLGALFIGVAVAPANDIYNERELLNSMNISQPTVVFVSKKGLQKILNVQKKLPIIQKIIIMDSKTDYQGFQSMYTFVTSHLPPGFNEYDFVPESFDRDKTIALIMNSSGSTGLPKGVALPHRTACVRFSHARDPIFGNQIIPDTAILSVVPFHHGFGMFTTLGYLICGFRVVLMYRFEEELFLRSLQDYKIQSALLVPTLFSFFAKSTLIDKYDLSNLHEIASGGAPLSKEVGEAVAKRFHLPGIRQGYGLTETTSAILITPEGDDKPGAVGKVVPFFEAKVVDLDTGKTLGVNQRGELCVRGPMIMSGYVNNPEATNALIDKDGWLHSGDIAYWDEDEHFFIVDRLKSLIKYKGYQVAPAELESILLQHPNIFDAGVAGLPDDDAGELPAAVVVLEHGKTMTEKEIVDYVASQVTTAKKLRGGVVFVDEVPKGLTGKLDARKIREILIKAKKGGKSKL
A short description of assay [6]: blockers of bursicon-stimulated LGR2 cAMP reporter – cell-based, HEK293, CRE-luciferase reporter, cherry pick, set 2, dose response (AID 743343).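 Also: transfected cells were stimulated with diluted bursicon conditioned medium after compound addition.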 It counts as functional.
Assay [7] in a line: blockade of melanocortin 4 receptor signaling – cell-based, plate reader, cherry pick, counter-screen for LGR2 antagonist project, dose response (AID 743444).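 Also: transfected HEK 293 cells stimulated with alpha-MSH peptide; potency of inhibitors of the alpha-MSH evoked signal.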 The assay is classed as functional.
Assay [8] is described as follows: Luminescence Cell-Based Dose Response HTS to Identify Inhibitors of 5'UTR Stem-Loop Driven Prion Protein mRNA Translation in H4 Neuroglioblastoma Cells. [Related pubchem assays: 1827 (Project Summary), 1813 (Primary HTS)]. It counts as functional.
The target of a further assay is Caspase-6 (Homo sapiens, UniProt P55212). Description: inhibition of CASP6 peptide cleavage – biochemical, VEID-R110 fluorescence, cherry-pick, dose response (AID 720632).
Caspase-6, sequence (P55212 24-179 limits assumed): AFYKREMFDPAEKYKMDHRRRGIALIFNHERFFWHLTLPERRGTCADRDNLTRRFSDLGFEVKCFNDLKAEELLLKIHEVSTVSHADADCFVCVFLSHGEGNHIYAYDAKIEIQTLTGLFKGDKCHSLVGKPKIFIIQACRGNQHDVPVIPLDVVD
Caspase-6, sequence (P55212 194-293 limits assumed): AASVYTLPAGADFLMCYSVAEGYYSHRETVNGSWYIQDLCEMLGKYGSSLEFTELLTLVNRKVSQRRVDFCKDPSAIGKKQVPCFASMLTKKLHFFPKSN
Assay [9] is described as follows: antiviral protection against BTV-induced cell death – arbovirus, BSR cells, confirmation (AID 1250).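 Also: protection from viral cytopathic effect measured as cell viability by ATP luminescence.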 It counts as functional.
Another assay has as its system HeLa. Kind of assay: viability loss in HeLa cells – cell-based, 24 h, cherry-picked samples, cytotoxicity control, dose response (AID 504726).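 Also: potency for cytotoxicity as loss of luminescence signal.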 Conditions: Homo sapiens. The assay is classed as functional.
A further assay concerns the target NS3 (Hepatitis C virus, UniProt A3EZJ3). Kind of assay: PubChem AID 2173. Details: species or system Hepacivirus hominis.
Assay [10] has as its target Serine/threonine-protein phosphatase (Homo sapiens, UniProt Q9BPW0). Kind of assay: Counterscreen for inhibitors of PP1: fluorescence-based biochemical high throughput dose response assay to identify inhibitors of Protein Phosphatase 5 (PP5). [Related pubchem assays: 2034 (Summary (PP5 inhibitors)), 1987 (PP5 inhibitors in singlate), 2235 (PP1 inhibitors in singlate)].

For assay [11], the target named is Serine/threonine-protein phosphatase PP1-alpha catalytic subunit (Homo sapiens, UniProt P62136). Description: inhibition of protein phosphatase 1 activity – biochemical, fluorescence, dose response (AID 2403).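 Also: phosphatase turnover of OMFP into fluorescent 3-O-methylfluorescein.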
Serine/threonine-protein phosphatase PP1-alpha catalytic subunit, sequence (P62136 whole entry): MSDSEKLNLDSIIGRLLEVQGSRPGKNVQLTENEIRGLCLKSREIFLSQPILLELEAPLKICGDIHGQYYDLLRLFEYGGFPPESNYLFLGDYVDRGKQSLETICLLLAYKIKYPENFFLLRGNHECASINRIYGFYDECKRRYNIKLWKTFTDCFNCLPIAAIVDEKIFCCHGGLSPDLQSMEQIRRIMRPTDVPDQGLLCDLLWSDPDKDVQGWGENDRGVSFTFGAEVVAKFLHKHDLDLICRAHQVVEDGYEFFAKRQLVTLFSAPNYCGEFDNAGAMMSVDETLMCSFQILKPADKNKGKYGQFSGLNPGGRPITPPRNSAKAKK
Assay [12] can be described thus: THP-1 cell cytotoxicity, dose response, cytotoxicity control for non-replicating M. tuberculosis project (AID 489025). It counts as functional.
Assay [13] in a line: microbe, parasite or virus in culture. The following applies: Mycobacterium tuberculosis. The assay is classed as functional.
A further assay can be described thus: cells. The assay is classed as functional.
The target in assay [14] is Neuropeptide Y receptor type 2 (Homo sapiens, UniProt P49146). Description: IC50 for human NPY-Y2 blockade – cell-based, counter-screen for NPY-Y1 antagonist project, dose response (AID 1278). It counts as functional.
Neuropeptide Y receptor type 2, sequence (P49146 whole entry): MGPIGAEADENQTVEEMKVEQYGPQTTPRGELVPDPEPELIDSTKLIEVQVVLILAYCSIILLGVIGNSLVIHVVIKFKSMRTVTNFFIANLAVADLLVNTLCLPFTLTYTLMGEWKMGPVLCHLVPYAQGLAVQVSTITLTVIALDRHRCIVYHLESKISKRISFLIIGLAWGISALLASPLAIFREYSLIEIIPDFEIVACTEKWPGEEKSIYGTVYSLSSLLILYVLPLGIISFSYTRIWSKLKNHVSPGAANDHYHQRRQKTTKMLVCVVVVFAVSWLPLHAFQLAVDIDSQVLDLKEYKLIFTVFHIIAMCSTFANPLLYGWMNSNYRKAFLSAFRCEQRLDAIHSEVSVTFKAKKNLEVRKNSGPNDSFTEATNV
For assay [15], the target named is Neuropeptide Y receptor type 1 (Homo sapiens, UniProt P25929). Description: IC50 of human NPY-Y1 blockers – cell-based, dose response (AID 1277). It counts as functional.
Neuropeptide Y receptor type 1, sequence (P25929 whole entry): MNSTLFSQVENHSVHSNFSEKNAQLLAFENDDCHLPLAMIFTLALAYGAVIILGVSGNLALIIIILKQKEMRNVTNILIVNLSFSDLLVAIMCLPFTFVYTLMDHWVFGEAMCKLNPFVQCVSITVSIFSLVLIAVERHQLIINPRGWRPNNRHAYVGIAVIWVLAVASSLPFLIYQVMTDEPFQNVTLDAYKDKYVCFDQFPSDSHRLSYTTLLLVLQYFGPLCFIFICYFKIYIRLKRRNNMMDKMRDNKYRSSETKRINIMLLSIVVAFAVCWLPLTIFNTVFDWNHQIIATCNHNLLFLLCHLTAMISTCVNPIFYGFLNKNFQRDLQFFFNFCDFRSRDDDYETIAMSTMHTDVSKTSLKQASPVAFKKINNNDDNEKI
The target in assay [16] is Polyadenylate-binding protein 1 (Homo sapiens, UniProt P11940). Kind of assay: blockers of PABP interaction with poly(A) – biochemical, fluorescence polarization, […] (AID 2014). (In general: Fluorescence polarisation rises when a labelled molecule tumbles more slowly, as on binding a larger partner.)
Polyadenylate-binding protein 1, sequence (P11940 whole entry): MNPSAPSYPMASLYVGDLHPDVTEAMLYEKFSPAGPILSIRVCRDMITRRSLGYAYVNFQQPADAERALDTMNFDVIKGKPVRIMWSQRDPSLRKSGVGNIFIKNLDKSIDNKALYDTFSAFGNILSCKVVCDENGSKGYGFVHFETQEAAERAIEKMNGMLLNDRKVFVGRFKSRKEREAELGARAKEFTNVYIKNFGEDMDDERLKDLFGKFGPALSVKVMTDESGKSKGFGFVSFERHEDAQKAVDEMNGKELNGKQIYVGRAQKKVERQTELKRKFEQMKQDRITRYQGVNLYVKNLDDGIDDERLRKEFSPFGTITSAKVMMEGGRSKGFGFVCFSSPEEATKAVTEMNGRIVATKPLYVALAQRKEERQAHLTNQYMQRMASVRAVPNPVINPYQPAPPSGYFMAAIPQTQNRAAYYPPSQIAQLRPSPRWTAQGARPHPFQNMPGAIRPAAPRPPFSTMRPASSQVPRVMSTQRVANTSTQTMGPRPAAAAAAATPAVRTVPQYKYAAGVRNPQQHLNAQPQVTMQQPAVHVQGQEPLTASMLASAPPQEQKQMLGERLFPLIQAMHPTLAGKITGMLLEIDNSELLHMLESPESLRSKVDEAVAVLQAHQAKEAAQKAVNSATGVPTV
Assay [17] has as its target Eukaryotic translation initiation factor 4H (Homo sapiens, UniProt Q15056). Description: eIF4H binding inhibition – biochemical, uHTS, fluorescence polarization, translation initiation inhibitor project, primary screen (AID 2012).
The target in the next assay is T1, Estrogen receptor (Homo sapiens, UniProt P03372).
T1 sequence (P03372 whole entry): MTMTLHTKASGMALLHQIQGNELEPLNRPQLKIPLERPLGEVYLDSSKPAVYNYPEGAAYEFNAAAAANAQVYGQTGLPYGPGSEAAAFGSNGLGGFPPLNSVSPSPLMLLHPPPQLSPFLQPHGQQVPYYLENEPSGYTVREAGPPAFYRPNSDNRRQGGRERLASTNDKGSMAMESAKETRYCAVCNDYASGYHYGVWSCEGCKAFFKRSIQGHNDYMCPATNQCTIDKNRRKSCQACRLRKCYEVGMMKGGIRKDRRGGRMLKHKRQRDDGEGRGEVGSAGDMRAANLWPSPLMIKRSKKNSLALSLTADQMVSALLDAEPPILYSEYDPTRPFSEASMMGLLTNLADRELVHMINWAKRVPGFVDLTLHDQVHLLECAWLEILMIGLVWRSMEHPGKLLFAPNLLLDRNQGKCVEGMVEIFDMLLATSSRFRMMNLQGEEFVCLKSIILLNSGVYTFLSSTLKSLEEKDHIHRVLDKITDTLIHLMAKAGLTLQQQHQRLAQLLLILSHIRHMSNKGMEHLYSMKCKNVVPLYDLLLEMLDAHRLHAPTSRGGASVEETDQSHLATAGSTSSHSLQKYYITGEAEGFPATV
Kind of assay: blockers of SRC-3 recruitment to ERα – biochemical, ELISA, streptavidin-HRP readout, orthogonal assay, confirmation (AID 1079).

In assay [18] the target is Acyl-homoserine lactone acylase PvdQ (Pseudomonas aeruginosa (strain LESB58), UniProt Q9I194). Description: PvdQ acylase enzyme activity blockers – biochemical, fluorescence, plate reader and imaging, cherry-picks, dose response (AID 493231).
Acyl-homoserine lactone acylase PvdQ, sequence (Q9I194 24-193 limits assumed): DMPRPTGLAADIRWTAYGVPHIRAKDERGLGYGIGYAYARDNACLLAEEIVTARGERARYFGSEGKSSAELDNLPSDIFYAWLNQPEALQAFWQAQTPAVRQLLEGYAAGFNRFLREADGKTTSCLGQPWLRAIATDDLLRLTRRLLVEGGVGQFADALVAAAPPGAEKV
Acyl-homoserine lactone acylase PvdQ, sequence (Q9I194 217-762 limits assumed): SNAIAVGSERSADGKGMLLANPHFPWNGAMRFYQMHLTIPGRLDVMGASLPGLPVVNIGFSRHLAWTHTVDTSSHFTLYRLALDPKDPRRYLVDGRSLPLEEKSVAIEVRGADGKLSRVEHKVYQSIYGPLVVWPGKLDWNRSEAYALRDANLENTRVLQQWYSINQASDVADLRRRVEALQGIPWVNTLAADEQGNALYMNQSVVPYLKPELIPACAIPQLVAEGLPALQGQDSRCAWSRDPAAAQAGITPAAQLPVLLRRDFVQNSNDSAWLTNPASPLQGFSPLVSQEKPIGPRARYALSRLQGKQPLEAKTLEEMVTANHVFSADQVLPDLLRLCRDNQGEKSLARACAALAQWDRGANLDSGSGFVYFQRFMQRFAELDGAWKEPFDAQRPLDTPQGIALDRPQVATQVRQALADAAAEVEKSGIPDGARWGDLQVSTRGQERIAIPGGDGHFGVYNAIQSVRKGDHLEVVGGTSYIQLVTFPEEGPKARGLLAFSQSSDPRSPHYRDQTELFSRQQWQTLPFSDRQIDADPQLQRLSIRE

Active and inactive are the calls of the source.

NS3, sequence (A3EZJ3 whole entry): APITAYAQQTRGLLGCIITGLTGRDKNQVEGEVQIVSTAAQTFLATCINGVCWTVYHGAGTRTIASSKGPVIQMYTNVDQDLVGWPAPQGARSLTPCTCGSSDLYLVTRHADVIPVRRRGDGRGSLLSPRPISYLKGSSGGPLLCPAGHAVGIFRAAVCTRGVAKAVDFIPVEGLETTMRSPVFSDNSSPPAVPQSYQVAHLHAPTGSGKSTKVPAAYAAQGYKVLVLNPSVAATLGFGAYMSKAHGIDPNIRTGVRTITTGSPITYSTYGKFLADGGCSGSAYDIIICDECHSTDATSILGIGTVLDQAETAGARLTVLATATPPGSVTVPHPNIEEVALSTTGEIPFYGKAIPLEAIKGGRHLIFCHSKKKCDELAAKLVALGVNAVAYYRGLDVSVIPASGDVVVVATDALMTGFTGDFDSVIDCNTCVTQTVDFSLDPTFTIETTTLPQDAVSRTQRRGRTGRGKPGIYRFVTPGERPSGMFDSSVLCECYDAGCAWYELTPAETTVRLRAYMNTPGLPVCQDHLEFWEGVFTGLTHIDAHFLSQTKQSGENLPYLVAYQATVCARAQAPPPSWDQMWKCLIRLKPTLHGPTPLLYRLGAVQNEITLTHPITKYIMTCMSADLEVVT
Serine/threonine-protein phosphatase, sequence (Q9BPW0 whole entry): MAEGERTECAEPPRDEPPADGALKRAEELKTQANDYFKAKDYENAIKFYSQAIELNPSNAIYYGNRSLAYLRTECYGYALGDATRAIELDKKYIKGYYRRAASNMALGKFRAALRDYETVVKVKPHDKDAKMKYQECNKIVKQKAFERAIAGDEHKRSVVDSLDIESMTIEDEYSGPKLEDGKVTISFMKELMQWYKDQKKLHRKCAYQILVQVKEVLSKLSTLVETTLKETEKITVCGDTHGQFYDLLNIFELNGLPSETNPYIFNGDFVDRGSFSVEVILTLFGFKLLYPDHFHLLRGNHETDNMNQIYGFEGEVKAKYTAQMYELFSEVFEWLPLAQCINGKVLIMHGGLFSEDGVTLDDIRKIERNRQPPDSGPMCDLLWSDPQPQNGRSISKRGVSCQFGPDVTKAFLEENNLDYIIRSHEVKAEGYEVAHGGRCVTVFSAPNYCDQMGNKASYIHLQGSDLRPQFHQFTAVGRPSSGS

Turning to `COc1cc(NC(=O)c2cc(C3CC3)on2)ccc1Br`, in assay [1], the EC50 was > 5.57 µM (inactive).

In the case of `O=C(Nc1ccc(Cl)cc1)c1cccs1`, in assay [2], the EC50 is > 50 µM (active).

Consider `Cn1c(=O)c2ccccc2n2c(CCl)nnc12`, for which the figures for the CC50 (in the assay with Vero; in assay [3]) were 18 µM (active) and 30.5 µM (active), respectively.

Take `O=C(Nc1nc2c(s1)CCCC2)C1COc2ccccc2O1` (stereo not given): the concentration for a half-maximal effect (EC50) is 5.78 µM (active) in [4], > 50 µM (not active) in the assay with HT-1080, < 200 nM (active) in assay [5] and 6.51 µM (active) in assay [8]. Also, the half-maximal activity concentration (AC50) in assay [6] was 6.29 µM (active); in assay [7] it was 12.1 µM (active).

As to `O=C(O)C1CCCCC1C(=O)Nc1nc(-c2ccc(Cl)s2)cs1` (stereo not given), the AC50 on Caspase-6 is 32.9 µM (active). In assay [9], the IC50 was 38.5 µM (active).

As to `CCCN(CCC)C(=O)C1c2ccccc2Oc2ccccc21`, the concentration at half-maximal activity (AC50) with HeLa is 81.4 µM (active).

For `CCCOc1ccc(C2C(C(=O)c3ccc(C)o3)=C(O)C(=O)N2Cc2ccco2)cc1OCC` (stereo not given), the concentration for half-maximal inhibition (IC50) on NS3 was 5.19 µM (active).

On to `CCn1c2ccccc2c2cc(NC(=O)COC(=O)c3ccc(NC(=O)CC#N)cc3)ccc21`, for which the IC50 in assay [10] was > 67 µM (not active); in assay [11] it was 7.27 µM (active).

With `Cc1ccc(-n2cc(CNCCn3nc(C)cc3C)c(-c3ccc(F)cc3)n2)cc1`, the CC50 in assay [12] is 23.5 µM (active); in [13] it was > 40 µM (active). In addition, the IC50 was 4.38 µM (active) in “cells”, > 35 µM (not active) in assay [14] and 10.6 µM (not active) in assay [15].

As to `O=C(C[n+]1ccccc1)c1ccc(Cl)cc1`, the IC50 in assay [16] is 5.96 µM (active); in [17], > 100 µM (inactive).

Take `O=C(CCCn1c(=S)[nH]c2ccccc2c1=O)N1CCN(c2cccc(O)c2)CC1`: at Estrogen receptor, the IC50 is 1.62 µM (not active).

Consider `N#CC(c1ccc(Cl)nn1)c1ccc(Cl)cc1Cl` (stereo not given), for which the AC50 in assay [18] is 646 nM (active).
